Values of other authors as cited in patent publication US20170224756A1, “Antioxidants Against Oxidative Stress During a Stressor Event” (MERIAL INC., priority 2016, published 2017).

Tests used:
[1] = tested on: endothelial dysfunction; conditions: locally administered; human forearms after typhoid vaccination
[2] = tested on: gastric lesions; conditions: indomethacin in rats
[3] = tested on: oxidative stress; conditions: heat-stressed quail

## O=C1O[C@H]([C@@H](O)CO)C(O)=C1O [ascorbic acid]
[1]
  endothelial dysfunction, reduced vascular nitric oxide bioavailability and increased oxidative stress: partially reversible

## [Se] [Se/DMSO, selenium]
[2]
  enzymatic antioxidants superoxide dismutase, catalase and glutathione peroxidase: increased
  gastric lesions: significantly reduced

## epigallocatechin-3-gallate [EGCG]
[3]
  heat stress induced oxidative stress: alleviates
